From patent US9067888B2, “Inhibitors of protein kinases” (Ingenium Pharmaceuticals GmbH, priority 2010, dated 2015)

Experiments:
[1] = tested on: TNF-alpha inducible reporter gene; assay: Inhibition of TNF-alpha-induced reporter gene expression (luciferase) in HeLa-derived cell line; format: cell-based, human; settings: Homo sapiens, 6 h, remaining luciferase activity in presence of 3 μM of compound as ratio of DMSO-treated cells, TNF-alpha 50 ng/ml, read-out: Efficacy (ratio to DMSO) TNF-alpha induced response
Description: TNF-alpha responsive cell lines like the human HeLa cell line can be used to study cellular responses to TNF-alpha, e.g. transcriptional regulation of a transfected TNF-alpha responsive reporter gene, and effects of kinase inhibitors on this response.
In order to analyse compound effects on TNF-alpha mediated transcriptional response, a HeLa-derived cell line stably transfected with a TNF-alpha inducible reporter gene was used (Panomics Catalog No. RC0013). The cell line was obtained by co-transfection of a luciferase reporter gene (Panomics P/N LR0051) and pHyg into human cervical epithelial HeLa cells, followed by hygromycin selection. TNFα-induced luciferase activity was used to select clones from the hygromycin-resistant cells. The cell line was maintained and stimulated according to the manufacturer's instructions. Briefly, cells were seeded at 5×10^5/well in 1 ml of growth medium in a 12-well plate and incubated in a humidified incubator at 37° C. and 5% CO2 for 24 hours. Medium was replaced with 1 ml of serum free medium and compounds were added up to concentrations of […]. After 1 hour of incubation, TNF-alpha was added to achieve a final concentration of 50 ng/ml. The culture dish was further incubated in a humidified incubator at 37° C. and 5% CO2 for 6 hours, medium was removed and 100 μL of lysis buffer were added to each well and the assay for luciferase activity was performed according to assay manufacturer's (Promega P/N E1500) recommendations. For more information about this cell line, go to worldwide website www(dot)panomics.com.
Compound effects on TNF-alpha-induced reporter gene expression is shown in column 6 in Table 1 given below. Indicated is the remaining luciferase activity after incubation in presence of 3 μM of compound as a ratio of the activity of DMSO-treated cells without compound. Specifically, it was intended to distinguish cell permeable compounds from other compounds having significant inhibitory potency with regard to other CDKs, but fail to penetrate cells or are unstable under the conditions of the experiment.

CDK9 = CDK9 (Homo sapiens (Human), UniProt P50750); assay: In vitro kinase inhibition, KinaseProfiler service of Millipore, residual activity; format: biochemical; settings: for remaining activity at 0.01 µM: residual activity at 10 nM compound, read-out: CDK9 10 nM (RA in %); for remaining activity at 0.1 µM: residual activity at 100 nM compound, read-out: CDK9 100 nM (RA in %)
Description: In vitro kinase assay analysis may be performed using standard techniques described in the art. These techniques are also used by commercial services providers in order to offer in vitro kinase activity assay services, e.g. the assays offered by Millipore Inc. (worldwide website www(dot)millipore.com), ProQinase GmbH (worldwide website www(dot)proqinase.de) and others.
In vitro kinase inhibition results shown in columns 7 to 9 in Table 1 were obtained by employing the KinaseProfiler™ service of Millipore and used to select compounds displaying specificity for CDK9. Specifically, it was intended to distinguish the CDK9-specific compounds from other compounds having significant inhibitory potency also with regard to other CDKs.

CDK9, sequence (P50750 whole entry): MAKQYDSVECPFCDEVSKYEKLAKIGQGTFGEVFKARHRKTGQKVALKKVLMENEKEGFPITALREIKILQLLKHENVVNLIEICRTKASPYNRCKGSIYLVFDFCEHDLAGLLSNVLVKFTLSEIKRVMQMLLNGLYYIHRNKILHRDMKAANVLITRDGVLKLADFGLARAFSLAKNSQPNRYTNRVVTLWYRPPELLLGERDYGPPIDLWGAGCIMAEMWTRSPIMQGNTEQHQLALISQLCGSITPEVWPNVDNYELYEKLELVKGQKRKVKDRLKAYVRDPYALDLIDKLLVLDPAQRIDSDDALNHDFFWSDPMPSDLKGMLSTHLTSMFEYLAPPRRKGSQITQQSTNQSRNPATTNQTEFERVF
CDK9, sequence (O60563 whole entry partner): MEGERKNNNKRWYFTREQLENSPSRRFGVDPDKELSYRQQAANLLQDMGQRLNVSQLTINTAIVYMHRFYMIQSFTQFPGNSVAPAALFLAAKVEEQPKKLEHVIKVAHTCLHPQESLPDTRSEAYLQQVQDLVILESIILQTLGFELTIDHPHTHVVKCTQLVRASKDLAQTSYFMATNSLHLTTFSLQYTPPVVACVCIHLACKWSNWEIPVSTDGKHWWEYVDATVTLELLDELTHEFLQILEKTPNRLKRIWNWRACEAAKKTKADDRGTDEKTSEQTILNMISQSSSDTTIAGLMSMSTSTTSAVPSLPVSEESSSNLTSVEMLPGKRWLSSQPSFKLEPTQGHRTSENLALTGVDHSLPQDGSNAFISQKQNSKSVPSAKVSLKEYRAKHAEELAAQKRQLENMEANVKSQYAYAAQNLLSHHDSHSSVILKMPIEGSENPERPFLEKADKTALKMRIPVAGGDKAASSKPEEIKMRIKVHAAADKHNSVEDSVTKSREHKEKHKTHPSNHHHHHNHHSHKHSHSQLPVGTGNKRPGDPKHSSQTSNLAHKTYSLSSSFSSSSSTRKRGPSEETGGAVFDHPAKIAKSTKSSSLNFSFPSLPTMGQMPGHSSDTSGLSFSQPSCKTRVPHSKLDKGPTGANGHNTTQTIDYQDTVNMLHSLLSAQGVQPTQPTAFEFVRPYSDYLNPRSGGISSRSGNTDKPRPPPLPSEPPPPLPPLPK

In the case of COc1cc(F)ccc1-c1ccnc(NC(=O)CC(C)c2cccnc2)c1 (stereo not drawn) [Example 23, N-(4-(4-Fluoro-2-methoxyphenyl)pyridin-2-yl)-3-(pyridin-3-yl)butanamide], the activity at 3 µM [1] is reported as 89%, the remaining activity at 0.01 µM (CDK9) is reported as 95% and the remaining activity at 0.1 µM (CDK9) is reported as 35%.

With COc1cc(F)ccc1-c1ccnc(NC(=O)C(C)Cc2cccnc2)c1 (stereo not drawn) [Example 24, N-(4-(4-Fluoro-2-methoxyphenyl)pyridin-2-yl)-2-((pyridin-3-yl)methyl)-propanamide] the activity at 3 µM [1] was 104%, the remaining activity at 0.01 µM (CDK9) was 92% and the remaining activity at 0.1 µM (CDK9) was 32%.

COc1cc(F)ccc1-c1ccnc(NC(=O)C(C)c2ccc(N3CCN(C)CC3)cc2)c1 (stereo not drawn) [Example 27, N-(4-(4-Fluoro-2-methoxyphenyl)pyridin-2-yl)-2-(4-(4-methylpiperazin-1-yl)phenyl)propanamide] showed an activity at 3 µM [1] of 8%, a remaining activity at 0.01 µM (CDK9) of 65% and a remaining activity at 0.1 µM (CDK9) of 8%.

COc1cc(F)ccc1-c1ccnc(NC(=O)C(C)Cc2ccc(N3CCN(C)CC3)cc2)c1 (stereo not drawn) [Example 28, 2-(4-(4-Methylpiperazin-1-yl)benzyl)-N-(4-(4-fluoro-2-methoxyphenyl)-pyridin-2-yl)propanamide] was tested, and the activity at 3 µM [1] was 121%, the remaining activity at 0.01 µM (CDK9) was 88% and the remaining activity at 0.1 µM (CDK9) was 49%.

With COc1cc(F)ccc1-c1ccnc(NC(=O)CC(C)c2ccc(N3CCN(C)CC3)cc2)c1 (stereo not drawn) [Example 29, N-(4-(4-Fluoro-2-methoxyphenyl)pyridin-2-yl)-3-(4-(4-methylpiperazin-1-yl)phenyl)butanamide] the activity at 3 µM [1] was 105%, the remaining activity at 0.01 µM (CDK9) was 95% and the remaining activity at 0.1 µM (CDK9) was 39%.

For COc1cc(F)ccc1-c1ccnc(NC(=O)[C@H]2CC[C@@H](Nc3ccccn3)CC2)c1 [Example 30, N-(4-(4-Fluoro-2-methoxyphenyl)pyridin-2-yl)-4-(pyridin-2-ylamino)-cis-cyclohexanecarboxamide], the activity at 3 µM [1] was 3%, the remaining activity at 0.01 µM (CDK9) was 29% and the remaining activity at 0.1 µM (CDK9) was 4%.

COc1cc(F)ccc1-c1ccnc(NC(=O)Cc2ccnc(N3CCN(C)CC3)c2)c1 [Example 31, N-(4-(4-Fluoro-2-methoxyphenyl)pyridin-2-yl)-2-(2-(4-methylpiperazin-1-yl)pyridin-4-yl)acetamide] was tested, and the activity at 3 µM [1] was 4%, the remaining activity at 0.01 µM (CDK9) was 58% and the remaining activity at 0.1 µM (CDK9) was 8%.

With COc1cc(F)ccc1-c1ccnc(NC(=O)[C@H]2CC[C@@H](Nc3ccncc3)CC2)c1 [Example 32, cis-N-(4-(4-Fluoro-2-methoxyphenyl)pyridin-2-yl)-4-(pyridin-4-ylamino)-cyclohexanecarboxamide] the activity at 3 µM [1] was 4%, the remaining activity at 0.01 µM (CDK9) was 34% and the remaining activity at 0.1 µM (CDK9) was 4%.

Work on COc1cc(F)ccc1-c1ccnc(NC(=O)[C@@H]2CC[C@H](NC(C)=O)C2)c1 [Example 34, (1R,3S)-3-Acetamido-N-(4-(4-fluoro-2-methoxyphenyl)pyridin-2-yl)cyclopentanecarboxamide] yielded an activity at 3 µM [1] of 7%, a remaining activity at 0.01 µM (CDK9) of 50% and a remaining activity at 0.1 µM (CDK9) of 8%.

Compound COc1cc(F)ccc1-c1ccnc(NC(=O)[C@H]2CC[C@@H](Nc3nccs3)CC2)c1 [Example 35, cis-N-(4-(4-Fluoro-2-methoxyphenyl)pyridin-2-yl)-4-(thiazol-2-ylamino)-cyclohexanecarboxamide] has an activity at 3 µM [1] of 2%, a remaining activity at 0.01 µM (CDK9) of 36% and a remaining activity at 0.1 µM (CDK9) of 4%.

For COc1cc(F)ccc1-c1ccnc(NC(=O)[C@H]2CC[C@@H](Nc3ccccc3)CC2)c1 [Example 36, cis-N-(4-(4-Fluoro-2-methoxyphenyl)pyridin-2-yl)-4-(phenylamino)-cyclohexanecarboxamide], the activity at 3 µM [1] was 26%, the remaining activity at 0.01 µM (CDK9) was 59% and the remaining activity at 0.1 µM (CDK9) was 12%.

Work on COc1cc(F)ccc1-c1ccnc(NC(=O)[C@@H]2CC[C@H](NCc3ccccc3)C2)c1 [Example 37, (1R,3S)-3-(Benzylamino)-N-(4-(4-fluoro-2-methoxyphenyl)pyridin-2-yl)cyclopentanecarboxamide] yielded an activity at 3 µM [1] of 2%, a remaining activity at 0.01 µM (CDK9) of 20% and a remaining activity at 0.1 µM (CDK9) of 2%.

Work on COc1cc(F)ccc1-c1ccnc(NC(=O)[C@H]2CC[C@@H](NCc3ccccc3)CC2)c1 [Example 38, cis-4-(Benzylamino)-N-(4-(4-fluoro-2-methoxyphenyl)pyridin-2-yl)cyclo-hexanecarboxamide] yielded an activity at 3 µM [1] of 2%, a remaining activity at 0.01 µM (CDK9) of 65% and a remaining activity at 0.1 µM (CDK9) of 4%.

COc1cc(F)ccc1-c1ccnc(NC(=O)[C@@H]2CC[C@H](Nc3ccccc3)C2)c1 [Example 39, (1R,3S)—N-(4-(4-Fluoro-2-methoxyphenyl)pyridin-2-yl)-3-(phenylamino)-cyclopentanecarboxamide] gave an activity at 3 µM [1] of 5%, a remaining activity at 0.01 µM (CDK9) of 60% and a remaining activity at 0.1 µM (CDK9) of 6%.

For COc1cc(F)ccc1-c1ccnc(NC(=O)[C@@H]2CCC[C@H](NC(C)=O)C2)c1 [Example 40, (1R,3S)-3-Acetamido-N-(4-(4-fluoro-2-methoxyphenyl)pyridin-2-yl)cyclohexanecarboxamide], the activity at 3 µM [1] was 46%, the remaining activity at 0.01 µM (CDK9) was 89% and the remaining activity at 0.1 µM (CDK9) was 38%.

Compound COc1cc(F)ccc1-c1ccnc(NC(=O)[C@H]2CC[C@@H](NC(C)=O)C2)c1 [Example 41, (1S,3R)-3-Acetamido-N-(4-(4-fluoro-2-methoxyphenyl)pyridin-2-yl)cyclopentanecarboxamide] has an activity at 3 µM [1] of 3%, a remaining activity at 0.01 µM (CDK9) of 38% and a remaining activity at 0.1 µM (CDK9) of 8%.
